US9918983B2, “Suicidal LSD1 inhibitors targeting SOX2-expressing cancer cells” (THE BOARD OF REGENTS OF THE NEVADA SYSTEM OF HIGHER …, priority 2013, dated 2018)

How the values were obtained:
PA-1 cells = experiment: Cell growth/viability (MTT, microscopy); assay type: cell-based, human; conditions: PA-1 cells, 50 μM, 30 hours
Procedure: (§1) Lung, breast, ovarian, and other carcinoma cells were either obtained from American Type Culture Collection (ATCC) or from the DTP and DCTD Tumor Repository of National Cancer Institute (the NCI-60 cancer cell line panel), operated by Charles River Laboratory, Inc., as listed in Table 1. They were cultured according to instructions and treated with various concentrations of LSD1 inhibitors for 30-36 hours for mRNA analysis by quantitative real time RT-PCR or for 30-48 hours for protein analysis and the cell viability assays using Western blotting or microscopy and MTT assays as described previously (Wang, J., et al. (2011) Cancer Research 71, 7238-7249).
(§2) Alternatively, cell viability assays were conducted as previously described (Wang, J., et al. (2011) Cancer Research 71, 7238-7249). For the MTT assay, cells were seeded onto 96-well culture plates with a density of 2000-5000 cells/well, and incubated with CBB1003 or CBB1007 at various concentrations from 1 to 100 μM for 30-48 hours, depending cell growth rate. Dimethylsulfoxide (DMSO) was used as a solvent control. MTT was added to a final concentration of 0.5 mg/mL and cells were re-incubated for 4 hours. After removing the medium, 200 μL DMSO was added to dissolve formazan, followed by incubation for 10 minutes, and absorbance was measured at 490 nm by a Bio Red microplate reader. All assays were performed in triplicates for each concentration. The cell viability rate was calculated as the relative percentage of MTT absorption as follows: % cell viability=(mean experimental absorbance/mean control absorbance)×100.
(§3) Table 8 below lists activity of CBB3001 (compound 10) in Sox2-negative (ES-2) and Sox2-expressing (PA-1 and T47D) cancer cells determined in a cell-based assay as described herein (see also FIG. 3A-C).

BT-549 cells = experiment: Cell growth/viability (MTT, microscopy); assay type: cell-based, human; conditions: BT549 cells, 50 μM, 30 hours
Procedure: as §1, §2

HS38.T cells = experiment: Cell growth/viability (MTT, microscopy); assay type: cell-based, human; conditions: 50 μM, 30 hours
Procedure: as §1, §2

IGROV-1 cells = experiment: Cell growth/viability (MTT, microscopy); assay type: cell-based, human; conditions: 50 μM, 30 hours
Procedure: as §1, §2

MCF7 cells = experiment: Cell growth/viability (MTT, microscopy); assay type: cell-based, human; conditions: 50 μM, 30 hours
Procedure: as §1, §2

SK-BR-3 cells = experiment: Cell growth/viability (MTT, microscopy); assay type: cell-based, human; conditions: 50 μM, 30 hours
Procedure: as §1, §2

SKOV-3 cells = experiment: Cell growth/viability (MTT, microscopy); assay type: cell-based, human; conditions: 50 μM, 30 hours
Procedure: as §1, §2

ES-2 cells = experiment: Cell growth/viability (MTT, microscopy); assay type: cell-based, human; conditions: ES-2 cells, 50 μM, 30 hours
Procedure: as §1
as §2, with “For the MTT assay, cells were seeded onto 96-well culture plates with a density of 2000-5000 cells/well, and incubated with CBB1003 or CBB1007 at various concentrations from 1 to 100 μM for 30-48 hours, depending cell growth rate.” left out
as §3

A549 cells = experiment: Cell growth/viability (MTT, microscopy); assay type: cell-based, human; conditions: 50 μM, 30 hr
Procedure: as §1
as §2, with “absorbance)×100. […]” for “absorbance)×100.”
(§4) Referring to FIG. 5C, the percent viability of cells treated with LSD1 inhibitors or siRNAs compared with control cells, as determined by 3-(4,5-dimethylthiazol-2-yl)-2,5-diphenyltetrazolium bromide (MTT) assay is shown. […] The statistical differences between inhibitor-treated and control groups were analyzed by one-way ANOVA (scale bar=[…]; **p<0.01).

NCI-H1437 cells = experiment: Cell growth/viability (MTT, microscopy); assay type: cell-based, human; conditions: 24-30 hr (50 μM, 30 hr in FIG. 5B)
Procedure: as §1
as §2, with “absorbance)×100. […]” for “absorbance)×100.”
as §4

NCI-H520 cells = experiment: Cell growth/viability (MTT, microscopy); assay type: cell-based, human; conditions: 24-30 hr (50 μM, 30 hr in FIG. 5B)
Procedure: as §1
as §2, with “absorbance)×100. […]” for “absorbance)×100.”
as §4

G401 cells = experiment: Cell growth/viability (MTT, microscopy); assay type: cell-based, human; conditions: 50 μM, 30 hours
Procedure: as §1
Alternatively, cell viability assays were conducted as previously described (Wang, J., et al. (2011) Cancer Research 71, 7238-7249). […] After removing the medium, 200 μL DMSO was added to dissolve formazan, followed by incubation for 10 minutes, and absorbance was measured at 490 nm by a Bio Red microplate reader. […] The cell viability rate was calculated as the relative percentage of MTT absorption as follows: % cell viability=(mean experimental absorbance/mean control absorbance)×100.
Referring to FIG. 10B, Sox2-expressing myelogenous leukemia and rhabdoid tumor cells were also sensitive to LSD1 inhibitors. […] The statistical differences between compound treated and control groups were analyzed by One-way ANOVA. *: p<0.05 and **: p<0.01.

[1] = target: T1, recombinant HDAC1 (GST-HDAC1) (Homo sapiens, UniProt Q13547); experiment: In vitro deacetylation assay, recombinant HDAC1, H4K16ac peptide; assay type: biochemical; conditions: LSD1 and HDAC1 without CoREST
T1 construct: Human LSD1 and HDAC1 full-length cDNAs were obtained from Open Biosystems; GST (N, cleaved yes); made in house; host or cells: Escherichia coli BL21
T1 sequence (Q13547 whole entry): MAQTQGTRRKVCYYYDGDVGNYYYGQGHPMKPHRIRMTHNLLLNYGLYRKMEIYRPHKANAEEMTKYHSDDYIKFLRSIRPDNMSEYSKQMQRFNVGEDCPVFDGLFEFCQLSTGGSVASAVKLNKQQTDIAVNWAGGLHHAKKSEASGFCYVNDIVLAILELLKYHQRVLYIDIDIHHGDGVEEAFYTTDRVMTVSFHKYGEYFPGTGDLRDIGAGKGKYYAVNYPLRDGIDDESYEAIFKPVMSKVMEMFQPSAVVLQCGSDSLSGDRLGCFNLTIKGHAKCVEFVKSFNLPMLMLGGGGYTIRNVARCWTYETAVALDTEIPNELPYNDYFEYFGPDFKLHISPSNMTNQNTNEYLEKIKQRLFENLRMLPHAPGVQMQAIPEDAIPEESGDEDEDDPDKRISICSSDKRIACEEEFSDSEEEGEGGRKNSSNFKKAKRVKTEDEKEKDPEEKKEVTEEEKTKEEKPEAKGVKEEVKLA
Description: Human LSD1 and HDAC1 full-length cDNAs were obtained from Open Biosystems. […] These cDNAs were fully sequenced and cloned into the pGEX-KG or pET28a vector and expressed as the glutathione S-transferase (GST)- or His-tagged fusion proteins in the Escherichia coli BL21 strain and affinity purified with glutathione or Ni-Sepharose (GE Healthcare, United Kingdom) resin. […] The GST tag and uncut GST-HDAC1/GST-LSD1 proteins were depleted by glutathione-Sepharose. For the reconstitution reaction, recombinant GST-CoREST, His-LSD1, and recombinant HDAC1 (rHDAC1) (GST was removed by the use of PreScission protease) (10 μg) were assembled into the LSD1-CoREST-HDAC1 complex and then pulled down by GSTSepharose resins. Protein A-Sepharose was used as a negative-control resin.
(§5) The percentages of deacetylated products were analyzed by mass spectrometry, and the data were analyzed by GraphPad Prism (version 5) software.

HDAC1-protein A complex = target: T2, HDAC1-protein A complex (Mus musculus, UniProt O09106); experiment: In vitro deacetylation assay, immunoaffinity-purified HDAC1-protein A complex from F9 cells; assay type: biochemical; conditions: H4K16ac peptide; 50 μM CBB1007 or 2 μM MS-275
T2 construct: 1 μg immunoprecipitated endogenous HDAC1-protein A complexes; endogenous in cells; host or cells: F9 mouse teratocarcinoma cells, anti-HDAC1 immunoprecipitate on protein A-Sepharose
Procedure: (§6) The immunocomplexes were captured by protein A-Sepharose. Isolated LSD1-protein A or HDAC1-protein A complexes were verified by Western blotting with LSD1 and HDAC1 antibodies.
as §5

LSD1-protein A complex = target: T3, LSD1-protein A complex (Mus musculus, UniProt Q6ZQ88); experiment: In vitro demethylation assay, immunoaffinity-purified LSD1-protein A complex from F9 cells; assay type: biochemical; conditions: dimethylated H3K4 peptide; 50 μM CBB1007 or 2 μM MS-275
T3 construct: recombinant and endogenous LSD1 complexes isolated from F9 cells; endogenous in cells; host or cells: F9 mouse teratocarcinoma cells, anti-LSD1 immunoprecipitate on protein A-Sepharose
Procedure: as §6, §5

[2] = target: T4, LSD1-CoREST-HDAC1 complex (Homo sapiens, UniProt O60341+Q13547); experiment: Reconstituted LSD1-CoREST-HDAC1 complex on oligonucleosomes; assay type: biochemical; conditions: 50 μM CBB1007 or 2 μM MS-275
T4 construct: Human LSD1 and HDAC1 full-length cDNAs were obtained from Open Biosystems; GST (N, cleaved yes); made in house; host or cells: Escherichia coli BL21
Procedure: For the reconstitution reaction, recombinant GST-CoREST, His-LSD1, and recombinant HDAC1 (rHDAC1) (GST was removed by the use of PreScission protease) (10 μg) were assembled into the LSD1-CoREST-HDAC1 complex and then pulled down by GSTSepharose resins. Protein A-Sepharose was used as a negative-control resin.
Briefly, cells (1×10^6) were washed twice with ice-cold hypotonic buffer (20 mM potassium-HEPES, pH 7.8, 5 mM potassium acetate, 0.5 mM MgCl2, 0.5 mM DTT), swelled, and disrupted with 25 strokes in a Dounce homogenizer using a tightfitting pestle. Nuclei were pelleted at 4,000 rpm for 5 min and resuspended in buffer A (20 mM HEPES, pH 7.9, 1.5 mM magnesium acetate, 50 mM potassium acetate, 10% glycerol, 0.5 mM DTT, 150 mM NaCl, protease and phosphatase inhibitors). […] The chromatin pellet was resuspended in 0.5 mL buffer B (0.32 M sucrose, 50 mM Tris-HCl, pH 7.5, 4 mM MgCl2, 1 mM CaCl2, 0.1 mM phenylmethylsulfonyl fluoride) and incubated with 30 units of micrococcal nuclease for 10 min at 37° C. The digested samples were centrifuged at 8,000×g for 10 min, and the supernatant, which contained oligonucleosomes, was recovered.
The reaction products (demethylated or deacetylated histones) were analyzed by Western blotting.

COC(=O)c1cc(CN2CCN(C(=N)N)CC2)cc(C(=O)N2CCN(C(=O)c3ccc(C(=N)N)cc3)CC2)c1 [CBB1007]
cell growth (PA-1 cells): sensitive
cell growth (BT-549 cells): not sensitive
cell growth (HS38.T cells): not sensitive
cell growth (IGROV-1 cells): sensitive
cell growth (MCF7 cells): sensitive
cell growth (SK-BR-3 cells): not sensitive
cell growth (SKOV-3 cells): sensitive
cell growth (ES-2 cells): not sensitive
cell growth (A549 cells): specifically inhibited the growth
cell growth (NCI-H1437 cells): no detectable effects
cell growth (NCI-H520 cells): selectively and specifically inhibit the growth
cell growth (G401 cells): inhibited
HDAC1 activity in the absence of CoREST [1]: not inhibited
deacetylase activity of immunoaffinity-purified HDAC1 (HDAC1-protein A) (HDAC1-protein A complex): sufficient to inhibit the deacetylase activity
demethylation activity of immunoaffinity-purified LSD1 (LSD1-protein A) (LSD1-protein A complex): sensitive
HDAC1 deacetylase activity in the reconstituted complex [2]: partial inhibition of the HDAC1 deacetylase activity
LSD1 demethylase activity in the reconstituted complex [2]: inhibited the activity of LSD1 demethylase
